Test results: patent US20260176313A1, “TGF-BETA-1 VACCINE” (IO BIOTECH APS, priority 2022, published 2026)

Legend:
[1] = tested on: mice; assay: IFNγ ELISPOT assay of immune responses in mice vaccinated with synthetic long peptides; type: in vivo, mouse; settings: mice vaccinated with SLP; recall with minimal class I / class II peptides
Procedure: FIG. 9. TGFb-1 vaccine induces robust immune responses. Mice were vaccinated with two different synthetic long peptides (SLPs) and immune responses were analyzed by IFNγ ELISPOT assay. ELISPOT responses for individual mice are shown. Results for control peptides are clearly indicated.
(§1) For the MC38 tumor study, female C56/BL6 mice (Tacomic) were vaccinated with 100 μg of peptide (SEQ ID: 31 or SEQ ID NO: 34) prepared in DMSO and diluted in water to a total volume of 50 μl (per injection) before mixing with an equal volume of Montanide ISA51 VG ST adjuvant to form an emulsion. The vaccine formulation was administered subcutaneously (s.c.) at the tail base on Days 0, 7, and 14. MC38 tumor cells (2e5 per injection) were administered s.c. in the flank on day 0. Every 3 to 4 days, tumors were measured with a Vernier caliper and the tumor volume was calculated using the formula: V=L×W2/2, where V is tumor volume, L is the length of tumor (longer axis), and W is the width of the tumor (shorter axis).
A murine TGFb-1 vaccine was developed based on synthetic long peptides (SLPs) encoding predicted MHC class I and class II epitopes (SEQ ID NOs: 31-36 in Table 1 below). Pre-clinical studies of anti-TGFb therapies often fail to show any impact on tumor growth when administered as a monotherapy.

[2] = tested on: MC38 tumor; assay: Analysis of tumor microenvironment (TME) by flow cytometry in MC38 tumor study; type: in vivo, mouse; settings: vaccinated Days 0, 7, 14, termination day 21
Procedure: FIG. 10A-D. TGFb-1 vaccine drives derived immune permissive changes in the TME. Tumor weight was compared between groups at experiment termination (day 21). TGFB-1 expression was assayed by latency associated peptide (LAP) staining.
as §1
Freshly isolated tumors were dissociated by collagenase digestion to yield a single cell suspension for flow cytometry analysis. Approximately 1 million cells were stained for analysis by flow cytometry using a Symphony Al flow cytometer (BD, Becton Dickinson) with the following antibodies, anti-mouse LAP BV421 (BD, 565638), anti-mouse CD4 BV605 (BD, 743156) and anti-mouse CD8 BV786 (BD, 563332). Data analysis was performed using FlowJo software.

SLDTQYSKVLALYNQHNPGASASP [SLP2]
Immune response by IFNγ ELISPOT in vaccinated mice [1]: mainly induced class II response
CD4+ T cell infiltration in TME [2]: significantly enhanced
CD8+ T cell infiltration in TME [2]: remained unchanged
